This note sets out measurements from US11725000B2, “Apoptosis inhibitors” (National Institute of Biological Sciences, Beijing, priority 2017, dated 2023).

Bounds are passed on as bounds.

The first assay concerns U2OS_Bim cells. Put plainly: Apoptosis inhibition assay (Bim-induced apoptosis, cell viability by ATP level). Format: cell-based. The note with it: U2OS_Bim cells, DOX-induced Bim overexpression, viability 24 h after DOX; read-out: EC50. The method in brief:
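Apoptosis was triggered by doxycycline (0.1 μg/mL) induction of Bim, one hour after compound addition to U2OS_Bim cells. Survival was measured after 24 h from cellular ATP (CellTiter-Glo), relative to DMSO, with zVAD at 20 μM as rescue control. Data are duplicate means, some estimated from preliminary results.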
In general, EC50 refers to the concentration giving half of the maximal effect. Turning to `COc1ccc(Cn2cc(-c3cc(C(F)(F)F)nc(S(=O)(=O)CCCC(=O)NC45CC6CC(CC(C6)C4)C5)n3)ccc2=O)cc1OC` [Compound 289], the EC50 was determined as 0.42 nM.

Staying with this assay, now noted: U2OS_Bim cells; means of duplicates; numbering of Tables 4a/4b; read-out: EC50.
Consider `COc1ccc(Cn2cc(-c3cc(C(F)F)nc(S(=O)(=O)CCCC(=O)NC45CC6CC(CC(C6)C4)C5)n3)ccc2=O)cc1OC` [Compound 288, N-((3s,5s,7s)-adamantan-1-yl)-4-((4-(difluoromethyl)-6-(1-(3,4-dimethoxybenzyl)-6-oxo-1,6-dihydropyridin-3-yl)pyrimidin-2-yl)sulfonyl)butanamide], for which the half-maximal effective concentration (EC50) was in the range of 1 to 1000 nM.
On to `COc1ccc(Cn2cc(-c3cc(C(F)(F)F)nc(S(=O)(=O)CCCC(=O)NC45CC6CC(CC(C6)C4)C5)n3)ccc2=O)cc1OC` [Compound 289], for which the EC50 was 1 to 1000 nM.
Turning to `[O-][S+](CCC(OCc1ccccc1)c1ccccc1)c1nc(-c2cccs2)cc(C(F)(F)F)n1` (centres unmarked) [Compound 290, 2-(3-(benzyloxy)-3-phenylpropylsulfinyl)-4-(thiophen-2-yl)-6-(trifluoromethyl)pyrimidine], the EC50 was 1000 to 10000 nM.
Turning to `O=S(=O)(CCC(OCc1ccccc1)c1ccccc1)c1nc(-c2cccs2)cc(C(F)(F)F)n1` (centres unmarked) [Compound 291, 2-(3-(benzyloxy)-3-phenylpropylsulfonyl)-4-(thiophen-2-yl)-6-(trifluoromethyl)pyrimidine], the EC50 fell in the range of 1000 to 10000 nM.
As to `O=S(=O)(CCC(Cl)c1ccccc1)c1nc(-c2cccs2)cc(C(F)(F)F)n1` (centres unmarked) [Compound 292, 2-((3-chloro-3-phenylpropyl)sulfonyl)-4-(thiophen-2-yl)-6-(trifluoromethyl)pyrimidine], the EC50 lay in the range of 1000 to 10000 nM.
For the compound `COc1ccc(Cn2cc(-c3nc(S(=O)(=O)CCC(OCc4ccccc4)c4ccccc4)nc4ccccc34)ccc2=O)cc1OC` (centres unmarked) [Compound 293, 5-(2-((3-(benzyloxy)-3-phenylpropyl)sulfonyl)quinazolin-4-yl)-1-(3,4-dimethoxybenzyl)pyridin-2 (1H)-one], the half-maximal effective concentration (EC50) lay within 1 to 1000 nM.
The same measure, in the same setting: as for `COc1ccc(Cn2cc(-c3cc(C)nc([S+]([O-])CCC(OCc4ccccc4)c4ccccc4)n3)ccc2=O)cc1OC` (centres unmarked) [Compound 294, 5-(2-(3-(benzyloxy)-3-phenylpropylsulfinyl)-6-methylpyrimidin-4-yl)-1-(3,4-dimethoxybenzyl)pyridin-2 (1H)-one], the figure is 1 to 1000 nM; as for `COc1ccc(Cn2cc(-c3cc(C)nc(S(=O)(=O)CCC(OCc4ccccc4)c4ccccc4)n3)ccc2=O)cc1OC` (centres unmarked) [Compound 295, 5-(2-(3-(benzyloxy)-3-phenylpropylsulfonyl)-6-methylpyrimidin-4-yl)-1-(3,4-dimethoxybenzyl)pyridin-2 (1H)-one], 1 to 1000 nM.
The same measure, in the same setting: the value for `COc1ccc(Cn2cc(-c3cc(-c4ccccc4F)nc(S(C)(=O)=O)n3)ccc2=O)cc1OC` [Compound 296, 1-(3,4-dimethoxybenzyl)-5-(6-(2-fluorophenyl)-2-(methylsulfonyl)pyrimidin-4-yl)pyridin-2 (1H)-one] was 1000 to 10000 nM; that for `COc1ccc(Cn2cc(-c3cc(-c4ccccc4F)nc([S+]([O-])CCC(OCc4ccccc4)c4ccccc4)n3)ccc2=O)cc1OC` (centres unmarked) [Compound 297, 5-(2-((3-(benzyloxy)-3-phenylpropyl)sulfinyl)-6-(2-fluorophenyl)pyrimidin-4-yl)-1-(3,4-dimethoxybenzyl)pyridin-2 (1H)-one] was < 100000 nM; that for `COc1ccc(Cn2cc(-c3cc(-c4ccccc4F)nc(S(=O)(=O)CCC(OCc4ccccc4)c4ccccc4)n3)ccc2=O)cc1OC` (centres unmarked) [Compound 298, 5-(2-((3-(benzyloxy)-3-phenylpropyl)sulfonyl)-6-(2-fluorophenyl)pyrimidin-4-yl)-1-(3,4-dimethoxybenzyl)pyridin-2 (1H)-one] was < 100000 nM.
The same measure, in the same setting: the value for `COc1ccc(Cn2cc(-c3cc(-c4cccs4)nc([S+]([O-])CCC(OCc4ccccc4)c4ccccc4)n3)ccc2=O)cc1OC` (centres unmarked) [Compound 299, 5-(2-((3-(benzyloxy)-3-phenylpropyl)sulfinyl)-6-(thiophen-2-yl)pyrimidin-4-yl)-1-(3,4-dimethoxybenzyl)pyridin-2 (1H)-one] was < 100000 nM; that for `COc1ccc(Cn2cc(-c3cc(-c4cccs4)nc(S(=O)(=O)CCC(OCc4ccccc4)c4ccccc4)n3)ccc2=O)cc1OC` (centres unmarked) [Compound 300, 5-(2-((3-(benzyloxy)-3-phenylpropyl)sulfonyl)-6-(thiophen-2-yl)pyrimidin-4-yl)-1-(3,4-dimethoxybenzyl)pyridin-2 (1H)-one] was 1 to 1000 nM.
Consider `COc1ccc(Cn2cc(-c3nc([S+]([O-])CCC(OCc4ccccc4F)c4ccccc4)nc4sccc34)cc(F)c2=O)cc1F` (centres unmarked) [Compound 301, 3-fluoro-1-(3-fluoro-4-methoxybenzyl)-5-(2-(3-(2-fluorobenzyloxy)-3-phenylpropylsulfinyl)thieno[2,3-d]pyrimidin-4-yl)pyridin-2 (1H)-one], for which the EC50 lay in the range of 1000 to 10000 nM.
Still for that read-out and setting: as for `COc1ccc(Cn2cc(-c3nc(S(=O)(=O)CCC(OCc4ccccc4F)c4ccccc4)nc4sccc34)cc(F)c2=O)cc1F` (centres unmarked) [Compound 302, 3-fluoro-1-(3-fluoro-4-methoxybenzyl)-5-(2-(3-(2-fluorobenzyloxy)-3-phenylpropylsulfonyl)thieno[2,3-d]pyrimidin-4-yl)pyridin-2 (1H)-one], the figure is 1 to 1000 nM.
With `COc1ccc(Cn2cc(-c3cc(C)nc(S(=O)(=O)CCC(C)=O)n3)cc(F)c2=O)cc1F` [Compound 303, 3-fluoro-1-(3-fluoro-4-methoxybenzyl)-5-(6-methyl-2-((3-oxobutyl)sulfonyl)pyrimidin-4-yl)pyridin-2 (1H)-one], the EC50 is < 100000 nM.
`COc1ccc(Cn2cc(-c3cc(C)nc([S+]([O-])CCC(C)OCc4ccccc4F)n3)cc(F)c2=O)cc1F` (centres unmarked) [Compound 304, 3-fluoro-1-(3-fluoro-4-methoxybenzyl)-5-(2-((3-((2-fluorobenzyl)oxy)butyl)sulfinyl)-6-methylpyrimidin-4-yl)pyridin-2 (1H)-one]: the EC50 was < 100000 nM.
The same measure, in the same setting: the value for `COc1ccc(Cn2cc(-c3cc(C)nc(S(=O)(=O)CCC(C)OCc4ccccc4F)n3)cc(F)c2=O)cc1F` (centres unmarked) [Compound 305, 3-fluoro-1-(3-fluoro-4-methoxybenzyl)-5-(2-((3-((2-fluorobenzyl)oxy)butyl)sulfonyl)-6-methylpyrimidin-4-yl)pyridin-2 (1H)-one] was 1 to 1000 nM; that for `Cc1cc(-c2cnc(=O)n(Cc3ccc4c(c3)OCO4)c2)nc(S(=O)(=O)CCC(OCc2ccccc2F)c2ccccc2)n1` (centres unmarked) [Compound 307, 1′-(benzo[d][1,3]dioxol-5-ylmethyl)-2-((3-((2-fluorobenzyl)oxy)-3-phenylpropyl)sulfonyl)-6-methyl-[4,5′-bipyrimidin]-2′(1′H)-one] was 1 to 1000 nM; that for `Cc1cc(-c2cc(F)c(=O)n(CC3CCCCC3)c2)nc([S+]([O-])CCC(OCc2ccc(F)cc2F)c2ccccc2)n1` (centres unmarked) [Compound 308, 1-(cyclohexylmethyl)-5-(2-(3-(2,4-difluorobenzyloxy)-3-phenylpropylsulfinyl)-6-methylpyrimidin-4-yl)-3-fluoropyridin-2 (1H)-one] was < 100000 nM.
For `Cc1cc(-c2cc(F)c(=O)n(CC3CCCCC3)c2)nc(S(=O)(=O)CCC(OCc2ccc(F)cc2F)c2ccccc2)n1` (centres unmarked) [Compound 309, 1-(cyclohexylmethyl)-5-(2-(3-(2,4-difluorobenzyloxy)-3-phenylpropylsulfonyl)-6-methylpyrimidin-4-yl)-3-fluoropyridin-2 (1H)-one], the EC50 lay in the range of 1000 to 10000 nM.
Same read-out and setting: the value for `CCOc1cccc(Cn2cc(-c3cc(C)nc([S+]([O-])CCC(OCc4ccc(F)cc4F)c4ccccc4)n3)cc(F)c2=O)c1` (centres unmarked) [Compound 310, 5-(2-((3-((2,4-difluorobenzyl)oxy)-3-phenylpropyl)sulfinyl)-6-methylpyrimidin-4-yl)-1-(3-ethoxybenzyl)-3-fluoropyridin-2 (1H)-one] was 1000 to 10000 nM; that for `CCOc1cccc(Cn2cc(-c3cc(C)nc(S(=O)(=O)CCC(OCc4ccc(F)cc4F)c4ccccc4)n3)cc(F)c2=O)c1` (centres unmarked) [Compound 311, 5-(2-((3-((2,4-difluorobenzyl)oxy)-3-phenylpropyl)sulfonyl)-6-methylpyrimidin-4-yl)-1-(3-ethoxybenzyl)-3-fluoropyridin-2 (1H)-one] was 1 to 1000 nM; that for `Cc1cc(-c2cc(F)c(=O)n(CC3CCNCC3)c2)nc(S(=O)(=O)CCC(OCc2ccc(F)cc2F)c2ccccc2)n1` (centres unmarked) [Compound 312, 5-(2-(3-(2,4-difluorobenzyloxy)-3-phenylpropylsulfonyl)-6-methylpyrimidin-4-yl)-3-fluoro-1-(piperidin-4-ylmethyl)pyridin-2 (1H)-one] was < 100000 nM.
For the compound `Cc1cc(-c2cc(F)c(=O)n(CC3CCOCC3)c2)nc([S+]([O-])CCC(OCc2ccc(F)cc2F)c2ccccc2)n1` (centres unmarked) [Compound 313, 5-(2-(3-(2,4-difluorobenzyloxy)-3-phenylpropylsulfinyl)-6-methylpyrimidin-4-yl)-3-fluoro-1-((tetrahydro-2H-pyran-4-yl)methyl)pyridin-2 (1H)-one], the EC50 fell in the range of 1000 to 10000 nM.
Turning to `Cc1cc(-c2cc(F)c(=O)n(CC3CCOCC3)c2)nc(S(=O)(=O)CCC(OCc2ccc(F)cc2F)c2ccccc2)n1` (centres unmarked) [Compound 314, 5-(2-(3-(2,4-difluorobenzyloxy)-3-phenylpropylsulfonyl)-6-methylpyrimidin-4-yl)-3-fluoro-1-((tetrahydro-2H-pyran-4-yl)methyl)pyridin-2 (1H)-one], the EC50 was in the range of 1 to 1000 nM.
Still for that read-out and setting: as for `Cc1cc(-c2cc(F)c(=O)n(Cc3ccc(Cl)c(Cl)c3)c2)nc([S+]([O-])CCC(OCc2ccc(F)cc2F)c2ccccc2)n1` (centres unmarked) [Compound 315, 1-(3,4-dichlorobenzyl)-5-(2-(3-(2,4-difluorobenzyloxy)-3-phenylpropylsulfinyl)-6-methylpyrimidin-4-yl)-3-fluoropyridin-2 (1H)-one], the figure is < 100000 nM; as for `Cc1cc(-c2cc(F)c(=O)n(Cc3ccc(Cl)c(Cl)c3)c2)nc(S(=O)(=O)CCC(OCc2ccc(F)cc2F)c2ccccc2)n1` (centres unmarked) [Compound 316, 1-(3,4-dichlorobenzyl)-5-(2-(3-(2,4-difluorobenzyloxy)-3-phenylpropylsulfonyl)-6-methylpyrimidin-4-yl)-3-fluoropyridin-2 (1H)-one], 1000 to 10000 nM.
